Test results: patent US9409905B2, “Antibacterial compounds and methods for use” (PTC THERAPEUTICS, INC., priority 2011, dated 2016)
≈ marks a conversion by molar mass, not a printed value.

Columns and labels:
E. coli LZ3111 = test: Antibacterial activity, MIC, quinolone resistant strain (Table 2); type: cell-based; conditions: Escherichia coli, LZ3111, read-out: MIC LZ3111
Outline: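 Broth microdilution. Read-out: MIC in μg/mL, taken as lowest concentration with no macroscopically visible growth.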

A. baumannii MXX2240 = test: Antibacterial activity, MIC, resistant strain (Table 4); type: cell-based; conditions: Acinetobacter baumannii, MXX2240; resistant A. baumannii MMX2240, multi-drug resistant clinical isolate; read-out: MIC, MMX2240
Outline: (§1)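 MIC in μg/mL by microbroth dilution, scored as the lowest level that suppresses visible growth.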

K. pneumoniae MXX1232 = test: as above; type: cell-based; conditions: Klebsiella pneumoniae, MXX1232; resistant K. pneumoniae MMX1232, multi-drug resistant clinical isolate; read-out: MIC, MMX1232
Outline: as §1

E. coli ELZ4251 = test: Antibacterial activity, MIC, multi-drug resistant clinical isolate (Table 3); type: cell-based; conditions: Escherichia coli
Outline: (§2)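 MIC (μg/mL) read as lowest concentration with no macroscopically visible growth, determined by microbroth dilution.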

E. coli ELZ4000 = test: as above; type: cell-based; conditions: Escherichia coli, ELZ4000, read-out: MIC ELZ4000
Outline: as §2

[1] = test system: Neisseria meningitidis (N. meningitidis) 13090; test: Antibacterial activity, MIC (Table 8); type: cell-based
Excerpt: (§3) The antibacterial activity from a microbroth dilution method may be presented as the minimum inhibitory concentration (MIC in μg/mL). The MIC value is the lowest concentration of drug which prevents macroscopically visible growth under test conditions.
(§4) Antibacterial activity of test compounds against the Gram-negative bacteria Haemophilus influenzae (H. influenzae) 49247 is shown in Table 6, Moraxella catarrhalis (M. catarrhalis) 25238 is shown in Table 7 and Neisseria meningitidis (N. meningitidis) 13090 is shown in Table 8.

[2] = test system: Pseudomonas aeruginosa (P. aeruginosa) 27853; test: Antibacterial activity, MIC (Table 5); type: cell-based; conditions: P. aeruginosa 27853, read-out: MIC, 27853
Outline: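 Microbroth dilution; MIC (μg/mL) = lowest concentration with no macroscopically visible growth.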

[3] = test system: Moraxella catarrhalis (M. catarrhalis) 25238; test: Antibacterial activity, MIC (Table 7); type: cell-based
Excerpt: as §3, §4

E. coli 25922 = test: Antibacterial activity, microbroth dilution MIC (Table 1); type: cell-based, Escherichia coli; conditions: Escherichia coli; microbroth dilution; control Gram-negative E. coli 25922 strain; read-out: MIC, 25922
Outline: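 In a microbroth dilution test, the minimum inhibitory concentration was defined as the lowest compound level preventing growth seen by eye, and was given in μg/mL.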

[4] = test system: Haemophilus influenzae (H. influenzae) 49247; test: Antibacterial activity, MIC (Table 6); type: cell-based
Excerpt: as §3, §4

[5] = test system: Staphylococcus aureus (S. aureus) 29213; test: Antibacterial activity, microbroth dilution MIC (Table 1); type: cell-based; conditions: microbroth dilution, Gram-positive S. aureus 29213, read-out: MIC, 29213
Outline: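 Broth microdilution against S. aureus 29213, E. coli 25922 and hypersensitive E. coli BAS849. MIC in μg/mL is the lowest drug concentration preventing macroscopically visible growth under test conditions.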

[6] = test system: Escherichia coli (E. coli) BAS849; test: as above; type: cell-based; conditions: microbroth dilution, super sensitive Gram-negative E. coli BAS849, read-out: MIC, BAS849
Outline: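 Read-out: visual absence of growth. The lowest concentration meeting this gives the MIC, expressed in μg/mL, with microbroth dilution as the method.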

[7] = test system: Acinetobacter baumannii (A. baumannii) BAA747; test: Antibacterial activity, MIC (Table 4); type: cell-based; conditions: A. baumannii BAA747, read-out: MIC, BAA747
Outline: as §1

[8] = test system: Klebsiella pneumoniae (K. pneumoniae) 35657; test: Antibacterial activity, MIC (Table 4); type: cell-based; conditions: K. pneumoniae 35657, read-out: MIC, 35657
Outline: as §1

Row | Structure (SMILES) | MIC (E. coli LZ3111) [µg/mL] | MIC (A. baumannii MXX2240) [µg/mL] | MIC (K. pneumoniae MXX1232) [µg/mL] | MIC (E. coli ELZ4251) [µg/mL] | MIC (E. coli ELZ4000) [µg/mL] | MIC [1] [µg/mL] | MIC [2] [µg/mL] | MIC [3] [µg/mL] | MIC (E. coli 25922) [µg/mL] | MIC [4] [µg/mL] | MIC [5] [µg/mL] | MIC [6] [µg/mL] | MIC [7] [µg/mL] | MIC [8] [µg/mL]
1 | CCc1c(-c2ccc3c(c2)cc(CN2CCCCC2)n3C)[nH]c(=O)c(C(=O)O)c1O [Cpd 192, 5-ethyl-4-hydroxy-6-(1-methyl-2-(piperidin-1-ylmethyl)-1H-indol-5-yl)-2-oxo-1,2-dihydropyridine-3-carboxylic acid] | 1 to 3.5 (≈ 2.44 to 8.55 µM) | 1 to 3.5 (≈ 2.44 to 8.55 µM) | 12.5 to 150 (≈ 30.5 to 366 µM) | 3.5 to 12.5 (≈ 8.55 to 30.5 µM) | 12.5 to 150 (≈ 30.5 to 366 µM) | < 1 | 12.5 to 150 (≈ 30.5 to 366 µM) | < 1 | < 1 | < 1 | 3.5 to 12.5 (≈ 8.55 to 30.5 µM) | < 1 | 1 to 3.5 (≈ 2.44 to 8.55 µM) | 1 to 3.5 (≈ 2.44 to 8.55 µM)
2 | CCc1c(-c2ccc3c(c2)cc(CN2CCCN(C)CC2)n3C)[nH]c(=O)c(C(=O)O)c1O.Cl.Cl [Cpd 238, 5-ethyl-4-hydroxy-6-(1-methyl-2-((4-methyl-1,4-diazepan-1-yl)methyl)-1H-indol-5-yl)-2-oxo-1,2-dihydropyridine-3-carboxylic acid dihydrochloride] | 1 to 3.5 | 12.5 to 150 | 12.5 to 150 | 12.5 to 150 | 12.5 to 150 | < 1 | 12.5 to 150 | 1 to 3.5 | 1 to 3.5 | < 1 | 3.5 to 12.5 | < 1 | 3.5 to 12.5 | 1 to 3.5
3 | CCc1c(-c2ccc3c(c2)cc(CN2CCC(N(C)C)C2)n3C)[nH]c(=O)c(C(=O)O)c1O (stereo not shown) [Cpd 200, 6-(2-((3-(dimethylamino)pyrrolidin-1-yl)methyl)-1-methyl-1H-indol-5-yl)-5-ethyl-4-hydroxy-2-oxo-1,2-dihydropyridine-3-carboxylic acid] | 1 to 3.5 (≈ 2.28 to 7.98 µM) | 12.5 to 150 (≈ 28.5 to 342 µM) | 12.5 to 150 (≈ 28.5 to 342 µM) | 12.5 to 150 (≈ 28.5 to 342 µM) | 12.5 to 150 (≈ 28.5 to 342 µM) | < 1 | 12.5 to 150 (≈ 28.5 to 342 µM) | 1 to 3.5 (≈ 2.28 to 7.98 µM) | 1 to 3.5 (≈ 2.28 to 7.98 µM) | 1 to 3.5 (≈ 2.28 to 7.98 µM) | 3.5 to 12.5 (≈ 7.98 to 28.5 µM) | < 1 | 3.5 to 12.5 (≈ 7.98 to 28.5 µM) | 12.5 to 150 (≈ 28.5 to 342 µM)
4 | CCc1c(-c2ccc3c(c2)cc(CN2C[C@H]4CCC[C@@H](NC)[C@H]4C2)n3C)[nH]c(=O)c(C(=O)O)c1O [Cpd 282, 5-ethyl-4-hydroxy-6-(1-methyl-2-(((3aR,4R,7aS)-4-(methylamino)-1H-isoindol-2(3H,3aH,4H,5H,6H,7H,7aH)-yl)methyl)-1H-indol-5-yl)-2-oxo-1,2-dihydropyridine-3-carboxylic acid] | 1 to 3.5 (≈ 2.09 to 7.31 µM) | 12.5 to 150 (≈ 26.1 to 313 µM) | 12.5 to 150 (≈ 26.1 to 313 µM) | 3.5 to 12.5 (≈ 7.31 to 26.1 µM) | 12.5 to 150 (≈ 26.1 to 313 µM) | 1 to 3.5 (≈ 2.09 to 7.31 µM) | 12.5 to 150 (≈ 26.1 to 313 µM) | 3.5 to 12.5 (≈ 7.31 to 26.1 µM) | < 1 | 1 to 3.5 (≈ 2.09 to 7.31 µM) | 12.5 to 150 (≈ 26.1 to 313 µM) | < 1 | 12.5 to 150 (≈ 26.1 to 313 µM) | 1 to 3.5 (≈ 2.09 to 7.31 µM)
5 | CCc1c(-c2ccc3c(c2)cc(CN2CCCC(N(C)C)C2)n3C)[nH]c(=O)c(C(=O)O)c1O (stereo not shown) [Cpd 250, 6-(2-((3-(dimethylamino)piperidin-1-yl)methyl)-1-methyl-1H-indol-5-yl)-5-ethyl-4-hydroxy-2-oxo-1,2-dihydropyridine-3-carboxylic acid] | 3.5 to 12.5 (≈ 7.73 to 27.6 µM) | 12.5 to 150 (≈ 27.6 to 331 µM) | 12.5 to 150 (≈ 27.6 to 331 µM) | 12.5 to 150 (≈ 27.6 to 331 µM) | 12.5 to 150 (≈ 27.6 to 331 µM) | < 1 | 12.5 to 150 (≈ 27.6 to 331 µM) | 1 to 3.5 (≈ 2.21 to 7.73 µM) | 1 to 3.5 (≈ 2.21 to 7.73 µM) | 3.5 to 12.5 (≈ 7.73 to 27.6 µM) | 3.5 to 12.5 (≈ 7.73 to 27.6 µM) | < 1 | 3.5 to 12.5 (≈ 7.73 to 27.6 µM) | 3.5 to 12.5 (≈ 7.73 to 27.6 µM)
